The experiment deals with T1, TMV coat protein (TMV-CP; TMV CP) (Tobacco mosaic virus (vulgare), UniProt P69687).
T1 sequence (P69687 2-159): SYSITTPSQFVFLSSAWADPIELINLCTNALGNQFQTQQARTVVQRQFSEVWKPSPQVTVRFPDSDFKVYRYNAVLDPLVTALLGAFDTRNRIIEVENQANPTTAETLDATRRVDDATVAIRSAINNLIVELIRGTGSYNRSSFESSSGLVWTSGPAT
The experiment can be described thus: microscale thermophoresis. The experiment is classed as binding.

The compound `Cc1csc(/C=C/C(=O)c2ccccc2OCCSc2nnc(-c3ccccc3)c(-c3ccccc3)n2)n1` [4o] had a Kd of 245 ± 63.9 µM.

For the origin of these results see publication PMC9060900 (RSC Advances, 2019).
